Here are results for one compound from patent publication US20210293825A1, “METHODS FOR PRECISION THERAPEUTIC TARGETING OF HUMAN CANCER CELL MOTILITY AND KITS THEREOF” (UNITED STATES GOVERNMENT AS REPRESENTED BY THE DEPARTMENT …, priority 2018, published 2021).

SMILES strings stand for the structures.

For data set [1], the target named is T1, CDC37 (Homo sapiens, UniProt Q16543).
T1 construct: made in house; host or cells: BL-21 DE-3 E. coli, pET15b
Briefly: Biophysical binding assays and DARTS, isolated CDC37. To be noted: ITC, thermal shift, biolayer interferometry, dynamic light scattering, DARTS. Here is the method:
Studies used purified recombinant HSP90β or CDC37. […] For DARTS assay, HSP90β or CDC37 were individually pre-incubated with KBU2046, thermolysin added, and reaction products were separated by SDS PAGE and visualized by silver stain (depicted above). NTco—no thermolysin control. However, when the DARTS assay was conducted with both HSP90β and CDC37 present, KBU2046 protected both proteins from degradation in a concentration-dependent manner (see, FIG. 5a).
DARTS provides a sensitive measure of ligand-induced changes in protein structure and dynamics by measuring the ability of a ligand to protect its target from protease digestion (Lomenick, B. et al., Proc Natl Acad Sci USA 106, 21984-9 (2009)). […] The intensity of the CDC37 band increased, that of the HSP90β degradation product decreased, and both effects were statistically significant, concentration-dependent and were evident at 10 nM. […] Further, these findings also indicate that KBU2046 is not acting as a classical HSP90 inhibitor.
Biophysical and Biochemical Binding Assays. […]
On the technique in general: In BLI a coated tip is dipped into the sample, and binding shifts an interference pattern.

The test system of data set [2] is NCI 60 cell line panel. Briefly: NCI 60 cell line panel screening. Type of data set: cell-based. To be noted: initial screening per DTP protocol. An excerpt: KBU2046 was submitted to the Developmental Therapeutics Program (DTP) of the US National Cancer Institute (NCI), underwent initial screening across the NCI 60 cell line panel per DTP protocol (Shoemaker, R. H., Nat Rev Cancer 6, 813-23 (2006)) and the resultant COMPARE diagram is depicted herein.

For data set [3], the system named is PC3-M cells. Briefly: Three day MTT cell growth inhibition assay, PC3-M cells. The class given is cell-based, human.
The subject of data set [4] is phosphorylation of p38 MAPK or of HSP27. Briefly: Downstream phosphorylation of p38 MAPK and HSP27 in cells (Western blot). The class given is cell-based, human. To be noted: PC3-M cells, 50 μM, 24 hours, then TGFβ. Here is the method: FIG. 16a is a depiction of established MKK4 pathway regulating human PCa cell metastasis. […] Values are the mean±SD (of N=2 replicates) increase in melting temperature (ΔTm) of purified recombinant MKK4 induced by the indicated concentrations of KBU2046 or genistein. […] The indicated concentrations of KBU2046 were added to recombinant activated MKK4, and its ability to phosphorylate kinase dead p38a MAPK (K53A) was measured by Western blot for total (p38 MAPK) and phosphorylated (pp38 MAPK) forms of p38 MAPK. […] PC3-M cells were pre-treated for 24 hours with 50 μM KBU2046 or genistein, as indicated, then with TGFβ, and Western blot performed. These findings are from a single experiment, with similar findings in identical separate experiments, repeated at least once.
On the technique in general: In western blotting, separated proteins are transferred to a membrane and probed.

T1 sequence (Q16543 whole entry): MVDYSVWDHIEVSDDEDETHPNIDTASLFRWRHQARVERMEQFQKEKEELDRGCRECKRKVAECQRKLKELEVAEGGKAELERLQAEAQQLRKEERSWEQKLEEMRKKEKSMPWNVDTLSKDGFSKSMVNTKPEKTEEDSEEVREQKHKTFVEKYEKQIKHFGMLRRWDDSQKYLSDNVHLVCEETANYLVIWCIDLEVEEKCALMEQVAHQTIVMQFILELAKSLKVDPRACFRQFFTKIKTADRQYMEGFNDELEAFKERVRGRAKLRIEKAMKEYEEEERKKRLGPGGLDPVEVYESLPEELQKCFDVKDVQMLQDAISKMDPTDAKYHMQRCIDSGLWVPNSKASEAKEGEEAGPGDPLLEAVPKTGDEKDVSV

Consider `O=C1c2ccccc2OCC1c1ccc(F)cc1` (racemic) [KBU2046, (±)-3(4-fluorophenyl)chroman-4-one], for which the “binding to CDC37” value in data set [1] is given as “no evidence of KBU2046 binding”. The cell toxicity entry in data set [2] is reported as “minimal-to-no cell toxicity”. For the same compound, in data set [3], the cell growth inhibition entry was “no growth inhibitory effects”. Moreover, the “inhibition of downstream phosphorylation of p38 MAPK or HSP27” value in data set [4] is reported as “did not inhibit downstream phosphorylation of p38 MAPK or of HSP27”.
